The values that follow come from PubChem BioAssay (NCI).

Some test systems named below: ACHN renal; MDA-MB-435; EKVX NSCLC; UO-31 renal; MOLT-4 leukemia; HCC-2998 colon; NCI/ADR-RES ovarian; NCI-H23 lung; K-562 leukemia; NCI-H522 lung; SF-539 CNS; OVCAR-5 ovarian; HOP-92 NSCLC; UACC-257 melanoma; U251 CNS; SK-OV-3 ovarian.
Holding throughout (experiment): DTP human tumour cell line panel, 48 h

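Assay format: 96-well plates, 48-hour exposure. GI50 is the concentration that inhibits growth by half. The concentration for full growth arrest is given as TGI.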

As usually defined, the TGI is the concentration giving total growth inhibition. Low values mean greater sensitivity of the cells, high ones lower sensitivity of the cells. In the case of `COc1ccc(/C=C2\C[C@H]3[C@@H]4CC=C5C[C@@H](OC(C)=O)CC[C@]5(C)[C@H]4CC[C@]3(C)C2=O)cc1OC`, the TGI is more than 100 µM with ACHN renal; more than 100 µM with MDA-MB-435; 66.5 µM with EKVX NSCLC; 35.9 µM with UO-31 renal; more than 100 µM with MOLT-4 leukemia; more than 100 µM in the assay with HCC-2998 colon. Besides, the TGI with NCI/ADR-RES ovarian, in the assay with NCI-H23 lung, with K-562 leukemia, in the assay with NCI-H522 lung, in the assay on SF-539 CNS and in the assay with OVCAR-5 ovarian was more than 100 µM each time. The concentration for total growth inhibition (TGI) in the assay with HOP-92 NSCLC and in the assay with UACC-257 melanoma was more than 100 µM in each case.
Consider `COC(=O)CNC(=O)CNC(=O)CSc1nnc(COc2ccc(Cl)cc2)n1-c1ccccc1`, for which the TGI was more than 100 µM in the assay with ACHN renal; 34.5 µM with MDA-MB-435; more than 100 µM in the assay on EKVX NSCLC; 48.6 µM in the assay with UO-31 renal; more than 100 µM in the assay with MOLT-4 leukemia; more than 100 µM with HCC-2998 colon. The TGI is more than 100 µM with NCI/ADR-RES ovarian; more than 100 µM with U251 CNS; more than 100 µM in the assay on NCI-H23 lung; more than 100 µM with K-562 leukemia; 31.8 µM in the assay with NCI-H522 lung; more than 100 µM in the assay on SF-539 CNS. In addition, the TGI with OVCAR-5 ovarian was more than 100 µM; in the assay with HOP-92 NSCLC, 49.5 µM; with UACC-257 melanoma, 40.5 µM.
In the case of `O=c1sc(Nc2ccc3ccccc3c2Cl)nc2ccccc12`, the TGI in the assay with ACHN renal, in the assay with MDA-MB-435, in the assay on EKVX NSCLC, in the assay on UO-31 renal, with HCC-2998 colon and with NCI/ADR-RES ovarian was more than 100 µM each time. For the same compound, the TGI with U251 CNS, with NCI-H23 lung, in the assay on SK-OV-3 ovarian, with K-562 leukemia, in the assay with NCI-H522 lung and with SF-539 CNS was more than 100 µM each time. In addition, the TGI with OVCAR-5 ovarian, with HOP-92 NSCLC and in the assay on UACC-257 melanoma was more than 100 µM in each case.
As to `N#Cc1sc2c(c1OC(=O)c1ccc(Cl)cc1)c(=O)n(-c1ccccc1)c(=S)n2-c1ccccc1`, the TGI was 86.8 µM in the assay on ACHN renal; 52.5 µM in the assay with MDA-MB-435; 49.2 µM in the assay with EKVX NSCLC; 68.7 µM with MOLT-4 leukemia; 52.2 µM in the assay on HCC-2998 colon; 73.2 µM with NCI/ADR-RES ovarian. Moreover, the TGI is 38.6 µM with U251 CNS; 65.8 µM in the assay on NCI-H23 lung; 91.4 µM in the assay on SK-OV-3 ovarian; more than 100 µM in the assay on K-562 leukemia; 5.29 µM with NCI-H522 lung; 44 µM in the assay on SF-539 CNS. Moreover, the TGI with OVCAR-5 ovarian was 68.2 µM; in the assay with HOP-92 NSCLC, 66.7 µM; in the assay on UACC-257 melanoma, more than 100 µM.
With `CCOC(CN(C)C(=O)Nc1ccc(Cl)c(Cl)c1)OCC`, the TGI in the assay on ACHN renal, in the assay on MDA-MB-435, in the assay on EKVX NSCLC, with UO-31 renal, with MOLT-4 leukemia and in the assay on HCC-2998 colon was more than 10 µM in each case. Also, the concentration for total growth inhibition (TGI) in the assay with NCI/ADR-RES ovarian, in the assay on U251 CNS, in the assay with NCI-H23 lung, with SK-OV-3 ovarian, with K-562 leukemia and with NCI-H522 lung was more than 10 µM throughout. The TGI with SF-539 CNS, in the assay on HOP-92 NSCLC and in the assay on UACC-257 melanoma was more than 10 µM each time.
Take `CC(O)CC(=O)CO[C@H]1[C@H](O)[C@@H](O)[C@@H](O)[C@@H]2NC(=O)c3c(cc4c(c3O)OCO4)[C@H]21` (stereo partly specified): the TGI in the assay on ACHN renal was determined as 0.613 µM; with MDA-MB-435, 0.175 µM; with EKVX NSCLC, 0.14 µM; with UO-31 renal, 0.588 µM; in the assay with MOLT-4 leukemia it was 0.321 µM; in the assay with HCC-2998 colon, 0.0609 µM. The TGI in the assay with NCI/ADR-RES ovarian was 27.6 µM; in the assay on U251 CNS it was 0.307 µM; in the assay on NCI-H23 lung, 0.457 µM; in the assay with K-562 leukemia, 4.14 µM; in the assay with NCI-H522 lung, 0.0962 µM; with SF-539 CNS, 0.0712 µM. The TGI in the assay on OVCAR-5 ovarian was found to be 0.48 µM; in the assay with HOP-92 NSCLC it was 0.64 µM; with UACC-257 melanoma, 1.02 µM.
A word on the GI50: it is the concentration giving 50% growth inhibition. For `Clc1ccc(OCc2nnc3sc(SSc4nn5c(COc6ccc(Cl)cc6)nnc5s4)nn23)cc1`, the TGI in the assay with ACHN renal, in the assay on MDA-MB-435, with EKVX NSCLC, in the assay on UO-31 renal, in the assay on HCC-2998 colon and with NCI/ADR-RES ovarian was more than 100 µM each time. In addition, the TGI with U251 CNS, with NCI-H23 lung, in the assay on SK-OV-3 ovarian, in the assay with K-562 leukemia, in the assay on NCI-H522 lung and in the assay on SF-539 CNS was more than 100 µM throughout. Moreover, the TGI in the assay with OVCAR-5 ovarian, with HOP-92 NSCLC and in the assay on UACC-257 melanoma was more than 100 µM each time. Further, the GI50 in the assay on HCC-2998 colon was 16.1 µM; in the assay on HOP-92 NSCLC it was 18.2 µM.
